Source: patent US20100183714A1, “GASTRORESISTANT PHARMACEUTICAL DOSAGE FORM COMPRISING N-(2-(2- PHTHALIMIDOETHOXY)-ACETYL)-L-ALANYL-D-GLUTAMIC ACID (LK-423)” (priority 2004, published 2010)

Test system: ulcerative changes of the ileum, caecum and colon
Assay: Antiulcerative action in vivo, DSS-induced ulcerative changes in rats
Conditions: 75 mg/kg orally
From the text: Ulcerative changes of ileum, caecum and colon in rats were developed in five days by drinking water containing 2% of sodium dextran sulphate (DSS).
DSS is the compound which after oral administration in an aqueous solution induces inflammatory and ulcerative changes in the mucosa of ileum, caecum and colon in animals.
The animals were randomly assigned to the individual groups.
From experiment day 6 onward the animals were drinking water with 1% DSS. The animals in Group A received the pure compound LK 423 in a dose of 75 mg/kg. The pure compound LK 423 was prepared as suspension in 1% gelatin (Gelatin GE0020, Scharlau) and was given orally via the tube in a volume of 1 ml.
In Group B the animals received the microcapsules comprising LK 423 in a dose of 75 mg/kg (as prepared in Example 1). The microcapsules comprising LK 423 were given orally via the tube dispersed in 1.5 to 2 ml 1% of gelatin.
At baseline the rats had body weight from 220 to 250 g. […] At baseline and on days 6 and 12 the body weight was recorded. For determination of the hematology parameters 1.5 ml blood samples were taken from the periorbital sinus at baseline and on day 5 of the experiment and from the abdominal aorta on day 12. The erythrocyte count and hemoglobin and hematocrit values were performed in the clinical laboratory of the Institute for Health Protection of Ruminants, Faculty of Veterinary Science. […] Throughout the experiment survival of the animals, diarrhea and occurrence of blood in the feces or the intensity of bleeding were also observed. On day 12 the animals were sacrificed under deep ether anesthesia and post-mortem examination was performed. Macroscopic changes in the ileum, caecum and in the colon and the intensity of bleeding were observed.
At autopsy fragments of the intestine were taken from the animals and fixed in 10% formaldehyde; paraffin tissue sections were prepared and stained with hematoxylin and eosin. Pathohistological diagnosis was then performed.
In all groups (both control groups, group A and group B) (Table 3) the tissue damage and a reaction of the surrounding tissue to the damage (level of regeneration) as well as accompanying parameters of the scope of bleeding in the mucosa, hypertrophy of the mucosa with glandular hyperplasia and the degree of epithelialization of the damage surface were assessed. The criteria were as follows:
The Scope of Acute Bleeding with Respect to the Tissue and to the Diameter of the Field of View at 40-Fold Magnification (4 mm): • No bleeding—0 • Small bleeding in the propria and submucosa, with a diameter less than half of the field of view—1 • Moderate bleeding in the propria and submucosa, with a diameter to one half of the field of view—2 • Very extensive bleeding in the propria and submucosa with a diameter greater than half of the field of view—3 • Very extensive bleeding in the propria, submucosa, around the vessels in the tunica muscularis, tunica serosa, and in the supporting tissue—4 Regressive Process—Damage with a Defense Reaction of the Tissue: • No cellular response (no reaction) or the regressive process was no longer active—0 • Moderate cellular infiltration (monocytes, granulocytes, macrophage, histocytes) with karyorrhesis and pyknosis in the mucosa and the submucosa—1 • Severe diffuse cellular infiltration (monocytes, granulocytes, macrophage, histocytes) with karyorrhesis and pyknosis in the mucosa and the submucos—2 • Cellular infiltration (monocytes, granulocytes, macrophage, histocytes) in the demarcation line around the injury—3

C[C@H](NC(=O)COCCN1C(=O)c2ccccc2C1=O)C(=O)N[C@H](CCC(=O)O)C(=O)O [LK 423, N-(2-(2-phthalimidoethoxy)-acetyl)-L-alanyl-D-glutamic acid]
Blood in the feces: + | Mortality: 33% | Percent of bleeding animals, Caecum: 17 | Percent of bleeding animals, Colon: 17 | Percent of bleeding animals, Ileum: 17 | Difference of hematology values from day 0 to 12, Erythrocytes (decrease from baseline): 1.25 × 10^12/l | Difference of hematology values from day 0 to 12, Hematocrit (decrease from baseline): 6.74% | Difference of hematology values from day 0 to 12, Hemoglobin (decrease from baseline): 17.2 g/l | Level of bleeding in the mucosa (histological score): 0.6 | Cellular process in sacrificed animals, Epithelialization (histological score, day 12): 2.37 | Cellular process in sacrificed animals, Hypertrophy of the mucosa (histological score, day 12): 2.75 | Cellular process in sacrificed animals, Level of damage (histological score, day 12): 1.75 | Cellular process in sacrificed animals, Level of regeneration (histological score, day 12): 2.37 | regeneration of damages of the intestinal mucosa compared with both control groups (pathohistology): more rapid regeneration
